Source: US20220135538A1, “P300/CBP HAT INHIBITORS AND METHODS FOR THEIR USE” (Constellation Pharmaceuticals, Inc., priority 2019, published 2022)

Molecular target: T1, p300 HAT domain (residues 1287-1666) (Homo sapiens, UniProt Q09472)
T1 construct: The p300 HAT domain (residues 1287-1666) was expressed; His tag (N); made in house; host or cells: Escherichia coli
T1 sequence (Q09472 1287-1666): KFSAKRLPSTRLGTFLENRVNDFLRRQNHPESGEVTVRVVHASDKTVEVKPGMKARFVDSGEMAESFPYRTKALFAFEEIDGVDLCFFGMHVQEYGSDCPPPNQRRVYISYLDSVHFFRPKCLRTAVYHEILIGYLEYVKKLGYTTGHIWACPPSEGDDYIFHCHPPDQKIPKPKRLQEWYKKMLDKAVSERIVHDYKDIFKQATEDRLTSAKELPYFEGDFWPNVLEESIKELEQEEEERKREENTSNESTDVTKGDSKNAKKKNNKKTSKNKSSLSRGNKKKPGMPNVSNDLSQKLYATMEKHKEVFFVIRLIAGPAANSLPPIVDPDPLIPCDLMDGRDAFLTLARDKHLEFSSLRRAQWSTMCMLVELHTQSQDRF
Assay: P300 HAT SPA assay (scintillation proximity, acetylation of biotinylated H3(1-21) peptide)
Type: biochemical
Settings: 6 nM p300-HAT domain; average of at least 2 replicate titrations
Experimental: The activity of the compounds described herein as p300/CBP HAT inhibitors may be readily determined using a scintillation proximity assay (SPA) methodology (Udenfriend, S.; Gerber, L.; Nelson, N. Scintillation Proximity Assay: A Sensitive and Continuous Isotopic Method for Monitoring Ligand/Receptor and Antigen/Antibody Interactions. Anal. Biochem. 1987, 161, 494-500).
In a typical experiment the p300 HAT inhibitory activity of the compounds described herein was determined in accordance with the following experimental method.
The p300 HAT domain (residues 1287-1666) was expressed and purified with an N-terminal His tag from Escherichia coli cells. The expressed protein was purified by Ni2+affinity, followed by anion exchange chromatography. Appropriate fractions were pooled and buffer exchanged into 20 mM Hepes pH 7.5, 150 mM NaCl, and 1 mM TCEP.
Compounds of interest solubilized in DMSO were stamped in a Greiner black 384-well plate in a 10-point duplicate dose response using an Echo 550 (Labcyte). p300-HAT domain purified in-house (aa 1287-1666) was diluted to 6 nM in reaction buffer (50 mM Tris pH 8.0, 100 mM NaCl, 1 mM DTT, 0.069 mM Brij-35, 0.1 mM EDTA, 0.1 mg/mL BSA), combined with 4.14 μM AcCoA (Sigma-Aldrich) and 0.46 μM ^3H-AcCoA (PerkinElmer), and 12.5 μL added to each well and incubated for 30 min at RT. Reactions were initiated with 12.5 μL 2 μM biotinylated H3(1-21) peptide (New England Peptide) and run for 1 hr at RT, then quenched with 20 μL stop solution (200 mM Tris pH 8.0, 200 mM EDTA, 2M NaCl, 160 μM anacardic acid). 35 μL of the reaction volume was transferred to a 384-well streptavidin FlashPlate (PerkinElmer) using a Bravo liquid handler (Velocity 11) and incubated for 1.5 hr at RT. Plates were aspirated, washed with 95 μL wash buffer (15 mM Tris pH 8.5, 0.069 μM Brij-35), aspirated, sealed, and scintillation counts read on a Topcount (PerkinElmer). Data were analyzed in Genedata to determine inhibitor IC50 values.

Row | SMILES | IC50 [nM]
1 | CC(=O)N1CC(Oc2ccc(NC(=O)C(NC[C@@H](C)c3ccc(C#N)cc3)c3ccccc3)nc2)C1 (single isomer, unassigned) [2 Isomer 2] | > 2000
2 | CN1CC(Oc2ccc(NC(=O)C(NCCc3ccc(Cl)cc3)c3ccccc3)nc2)CN(C)C1=O (single isomer, unassigned) [3 Isomer 1] | > 2000
3 | CN1CC(Oc2ccc(NC(=O)C(NCCc3ccc(Cl)cc3)c3ccccc3)nc2)CN(C)C1=O (single isomer, unassigned) [3 Isomer 2] | 117
4 | N#Cc1ccc(CCNC(C(=O)Nc2ccc(O[C@@H]3CCOC3)cn2)c2ccccc2)cc1 (single isomer, unassigned) [4 Isomer 1] | 91.4
5 | N#Cc1ccc(CCNC(C(=O)Nc2ccc(O[C@@H]3CCOC3)cn2)c2ccccc2)cc1 (single isomer, unassigned) [4 Isomer 2] | > 2000
6 | N#Cc1ccc(CCNC(C(=O)Nc2ccc(OC3COC3)cn2)c2ccccc2)cc1 (single isomer, unassigned) [6 Isomer 1] | 39.9
7 | N#Cc1ccc(CCNC(C(=O)Nc2ccc(OC3COC3)cn2)c2ccccc2)cc1 (single isomer, unassigned) [6 Isomer 2] | 1140
8 | O=C(Nc1ccc(OCCn2cccn2)cn1)C(NCCc1ccc(Cl)cc1)c1ccccc1 (single isomer, unassigned) [7 Isomer 1] | > 2000
9 | O=C(Nc1ccc(OCCn2cccn2)cn1)C(NCCc1ccc(Cl)cc1)c1ccccc1 (single isomer, unassigned) [7 Isomer 2] | 98.5
10 | Cn1cc(COc2ccc(NC(=O)C(NCCc3ccc(Cl)cc3)c3ccccc3)nc2)cn1 (single isomer, unassigned) [8 Isomer 1] | 1360
11 | CN1CC(Oc2ccc(NC(=O)C(NCCc3ccc(Cl)cc3)c3ccccc3)nc2)CCC1=O (single isomer, unassigned) [10 Isomer 1] | 94.2
12 | CN1CC(Oc2ccc(NC(=O)C(NCCc3ccc(Cl)cc3)c3ccccc3)nc2)CCC1=O (single isomer, unassigned) [10 Isomer 2] | > 2000
13 | CN1CC(Oc2ccc(NC(=O)C(NCCc3ccc(Cl)cc3)c3ccccc3)nc2)CCC1=O (single isomer, unassigned) [10 Isomer 3] | 45.4
14 | CN1CC(Oc2ccc(NC(=O)C(NCCc3ccc(Cl)cc3)c3ccccc3)nc2)CCC1=O (single isomer, unassigned) [10 Isomer 4] | > 2000
15 | CN1CCC(Oc2ccc(NC(=O)C(NCCc3ccc(Cl)cc3)c3ccccc3)nc2)CC1 (single isomer, unassigned) [11 Isomer 1] | 26.6
16 | CN1CCC(Oc2ccc(NC(=O)C(NCCc3ccc(Cl)cc3)c3ccccc3)nc2)CC1 (single isomer, unassigned) [11 Isomer 2] | > 2000
17 | CN1CCC(Oc2ccc(NC(=O)C(NCCc3ccc(C#N)cc3)c3ccccc3)nc2)C1=O (single isomer, unassigned) [12 Isomer 1] | 65
18 | CN1CCC(Oc2ccc(NC(=O)C(NCCc3ccc(C#N)cc3)c3ccccc3)nc2)C1=O (single isomer, unassigned) [12 Isomer 2] | 63
19 | CN1CCC(Oc2ccc(NC(=O)C(NCCc3ccc(C#N)cc3)c3ccccc3)nc2)C1=O (single isomer, unassigned) [12 Isomer 3] | > 2000
20 | CN1CCC(Oc2ccc(NC(=O)C(NCCc3ccc(C#N)cc3)c3ccccc3)nc2)C1=O (single isomer, unassigned) [12 Isomer 4] | > 2000
21 | CC(=O)N1CC[C@H](Oc2ccc(NC(=O)C(NCCc3ccc(C#N)cc3)c3ccccc3)nc2)C1 (single isomer, unassigned) [13 Isomer 1] | > 2000
22 | CC(=O)N1CC[C@H](Oc2ccc(NC(=O)C(NCCc3ccc(C#N)cc3)c3ccccc3)nc2)C1 (single isomer, unassigned) [13 Isomer 2] | 59.9
23 | CC(=O)N1CC[C@@H](Oc2ccc(NC(=O)C(NCCc3ccc(C#N)cc3)c3ccccc3)nc2)C1 (single isomer, unassigned) [14 Isomer 1] | 36.2

Row | SMILES | IC50 [nM]
24 | CC(=O)N1CC[C@@H](Oc2ccc(NC(=O)C(NCCc3ccc(C#N)cc3)c3ccccc3)nc2)C1 (single isomer, unassigned) [14 Isomer 2] | > 2000
25 | CC(=O)N1CCC[C@H](Oc2ccc(NC(=O)C(NCCc3ccc(C#N)cc3)c3ccccc3)nc2)C1 (single isomer, unassigned) [15 Isomer 1] | 272
26 | CC(=O)N1CCC[C@H](Oc2ccc(NC(=O)C(NCCc3ccc(C#N)cc3)c3ccccc3)nc2)C1 (single isomer, unassigned) [15 Isomer 2] | > 2000
27 | CC(=O)N1CCC[C@@H](Oc2ccc(NC(=O)C(NCCc3ccc(C#N)cc3)c3ccccc3)nc2)C1 (single isomer, unassigned) [16 Isomer 1] | 164
28 | CC(=O)N1CCC[C@@H](Oc2ccc(NC(=O)C(NCCc3ccc(C#N)cc3)c3ccccc3)nc2)C1 (single isomer, unassigned) [16 Isomer 2] | > 2000
29 | CC(CNC(C(=O)Nc1ccc(Oc2cnn(C)c2)cn1)c1ccccc1)c1ccc(C#N)cc1 (single isomer, unassigned) [17 Isomer 1] | 33.7
30 | CC(CNC(C(=O)Nc1ccc(Oc2cnn(C)c2)cn1)c1ccccc1)c1ccc(C#N)cc1 (single isomer, unassigned) [17 Isomer 2] | > 2000
31 | CC(CNC(C(=O)Nc1ccc(Oc2cnn(C)c2)cn1)c1ccccc1)c1ccc(C#N)cc1 (single isomer, unassigned) [17 Isomer 3] | > 2000
32 | CC(CNC(C(=O)Nc1ccc(Oc2cnn(C)c2)cn1)c1ccccc1)c1ccc(C#N)cc1 (single isomer, unassigned) [17 Isomer 4] | > 2000
33 | CC(Oc1ccc(NC(=O)C(NCCc2ccc(C#N)cc2)c2ccccc2)nc1)c1cnn(C)c1 (single isomer, unassigned) [18 Isomer 1] | 311
34 | CC(Oc1ccc(NC(=O)C(NCCc2ccc(C#N)cc2)c2ccccc2)nc1)c1cnn(C)c1 (single isomer, unassigned) [18 Isomer 2] | 209
35 | CC(Oc1ccc(NC(=O)C(NCCc2ccc(C#N)cc2)c2ccccc2)nc1)c1cnn(C)c1 (single isomer, unassigned) [18 Isomer 3] | > 2000
36 | CC(Oc1ccc(NC(=O)C(NCCc2ccc(C#N)cc2)c2ccccc2)nc1)c1cnn(C)c1 (single isomer, unassigned) [18 Isomer 4] | > 2000
37 | N#Cc1ccc(CCNC(C(=O)Nc2ccc(OCCN3CCOC3=O)cn2)c2ccccc2)cc1 (single isomer, unassigned) [19 Isomer 1] | 56.6
38 | N#Cc1ccc(CCNC(C(=O)Nc2ccc(OCCN3CCOC3=O)cn2)c2ccccc2)cc1 (single isomer, unassigned) [19 Isomer 2] | > 2000
39 | CC(CNC(C(=O)Nc1ccc(OC2CCN(C(=O)C3CC3)CC2)cn1)c1ccccc1)c1ccc(C#N)cc1 (single isomer, unassigned) [20 Isomer 1] | > 2000
40 | CC(CNC(C(=O)Nc1ccc(OC2CCN(C(=O)C3CC3)CC2)cn1)c1ccccc1)c1ccc(C#N)cc1 (single isomer, unassigned) [20 Isomer 2] | 26.7
41 | CC(CNC(C(=O)Nc1ccc(OC2CN(C(=O)C3CC3)C2)cn1)c1ccccc1)c1ccc(C#N)cc1 (single isomer, unassigned) [21 Isomer 2] | > 2000
42 | Cc1cnc(Oc2ccc(NC(=O)C(NCCc3ccc(C#N)cc3)c3ccccc3)nc2)nc1 (single isomer, unassigned) [22 Isomer 1] | > 2000
43 | Cc1cnc(Oc2ccc(NC(=O)C(NCCc3ccc(C#N)cc3)c3ccccc3)nc2)nc1 (single isomer, unassigned) [22 Isomer 2] | 1390
44 | CC(=O)N1CC(Oc2ccc(NC(=O)C(NCC(C)c3ccc(C#N)cc3)c3cccc(F)c3)nc2)C1 (single isomer, unassigned) [23 Isomer 2] | 965
45 | CC(=O)N1CC(Oc2ccc(NC(=O)C(NCC(C)c3ccc(C#N)cc3)c3cnn(C)c3)nc2)C1 (single isomer, unassigned) [24 Isomer 2] | 578
46 | CC(=O)N1CC(Oc2ccc(NC(=O)C(NCC(C)c3ccc(C#N)cc3)c3cnn(C)c3)nc2)C1 (single isomer, unassigned) [24 Isomer 3] | > 2000
